Reference: US9328093B2, “Selective inhibitors of ubiquitin specific protease 7, the pharmaceutical compositions thereof and their therapeutic applications” (HYBRIGENICS SA, priority 2010, dated 2016)

What was measured:
UCH-L3 = target: T1, UCH-L3 (Homo sapiens, UniProt P15374); test: UCH-L3 activity assay (Ub-AMC substrate); assay type: biochemical; conditions: Ub-AMC 300 nM, UCH-L3 13 pM
T1 sequence (P15374 1-230): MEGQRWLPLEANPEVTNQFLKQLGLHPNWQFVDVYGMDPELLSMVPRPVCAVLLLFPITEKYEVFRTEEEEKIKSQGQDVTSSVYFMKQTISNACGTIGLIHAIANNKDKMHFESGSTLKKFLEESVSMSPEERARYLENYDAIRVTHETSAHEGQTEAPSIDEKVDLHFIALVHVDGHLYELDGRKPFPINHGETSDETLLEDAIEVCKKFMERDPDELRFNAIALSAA
Protocol: UCH-L3 was diluted in USP buffer (50 mM Tris HCl; 0.5 mM EDTA; 5 mM DTT; 0.01% Triton X-100; Bovine Serum Albumin 0.05 mg·ml^−1 pH7.6). Compounds stocks (100 mM) were stored at −20° C. in DMSO. Compounds were tested at different concentrations: from 200 μM to 91 nM.
(§1) Reactions were performed as duplicates in Black 384 well plates (small volume microplates; Greiner; 10 μl final reaction volume). The substrate concentration for UCH-L3 was 300 nM Ub-AMC (Boston Biochem). The concentration of the enzyme (UCH-L3) in specificity assays was 13 pM. The concentrations were determined in order to perform specificity assays under initial velocities at fixed substrate concentration. Compounds were pre-incubated with enzymes for 30 minutes at 25° C. Reactions were initiated by addition of substrate to the plates containing the enzymes (+/− compounds) diluted in assay buffer. Reactions were incubated for 60 minutes at 37° C. Reactions were stopped by adding acetic acid (100 mM final). Readings were performed on a Pherastar Fluorescent Reader (BMG). λ Emission 380 nm; λ Excitation=460 nm. Data (mean values +/− standard deviation) were analyzed as % of control (no compound) and plotted as percentage versus the Log of the compound concentration using GraphPad (Prism). Data were fitted to a sigmoidal model (variable slope).

UCH-L1 = target: T2, UCH-L1 (Homo sapiens, UniProt P09936); test: UCH-L1 activity assay (Ub-AMC substrate); assay type: biochemical; conditions: Ub-AMC 300 nM, UCH-L1 2.5 nM
T2 sequence (P09936 1-223): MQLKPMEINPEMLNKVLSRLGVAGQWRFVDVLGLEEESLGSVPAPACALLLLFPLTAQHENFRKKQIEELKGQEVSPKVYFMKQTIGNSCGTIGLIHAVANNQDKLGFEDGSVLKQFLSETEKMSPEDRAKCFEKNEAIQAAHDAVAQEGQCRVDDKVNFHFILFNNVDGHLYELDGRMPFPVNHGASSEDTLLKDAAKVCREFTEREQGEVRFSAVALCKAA
Protocol: UCH-L1 was diluted in USP buffer (50 mM Tris HCl; 0.5 mM EDTA; 5 mM DTT; 0.01% Triton X-100; Bovine Serum Albumin 0.05 mg·ml^−1 pH7.6). Compounds stocks (100 mM) were stored at −20° C. in DMSO. Compounds were tested at different concentrations: from 200 μM to 91 nM.
as §1, with “UCH-L1” for “UCH-L3”, “(UCH-L1)” for “(UCH-L3)”, “2.5 nM.” for “13 pM.”

Which results are given for CN1CCCC1CCNC(=O)c1ccc2c(Cl)c3c(nc2c1)CCCC3 (stereo not drawn) [Example 17, 9-chloro-N-(2-(1-methylpyrrolidin-2-yl)ethyl)-5,6,7,8-tetrahydroacridino-3-carboxamide]?
IC50 (UCH-L3): > 200 µM; IC50 (UCH-L1): > 200 µM

What does the source list for O=C(NCc1cccc(CN2CCCC2)c1)c1ccc2c(Cl)c3c(nc2c1)CCCC3 [Example 18, 9-chloro-N-(3-(pyrrolidin-1-ylmethyl)benzyl)-5,6,7,8-tetrahydroacridine-3-carboxamide]?
IC50 (UCH-L3): > 200 µM; IC50 (UCH-L1): > 200 µM

Which results are given for O=C(Nc1cccc(CN2CCCC2)c1)c1ccc2c(Cl)c3c(nc2c1)CCCC3 [Example 19, 9-chloro-N-(3-(pyrrolidin-1-ylmethyl)phenyl)-5.6,7,8-tetrahydroacridine-3-carboxamide]?
IC50 (UCH-L3): > 200 µM; IC50 (UCH-L1): > 200 µM

CC1CCCCN1CCCNC(=O)c1ccc2c(Cl)c3c(nc2c1)CCCC3 (stereo not drawn) [Example 20, 9-chloro-N-(3-(2-methylpiperidin-1-yl)propyl)-516,7,8-tetrahydroacridine-3-carboxamide] was tested. Which IC50 (UCH-L3) did it give?
The IC50 was over 200 µM.

And the IC50 (UCH-L1)?
The IC50 was over 200 µM.

Which results are given for O=C(NCc1ccc(CN2CCCC2)cc1)c1ccc2c(Cl)c3c(nc2c1)CCCC3 [Example 21, 9-chloro-N-(4-(pyrrolidin-1-ylmethyl)benzyl)-5,6,7,8-tetrahydroacridine-3-carboxamide]?
IC50 (UCH-L3): > 200 µM; IC50 (UCH-L1): > 200 µM

What does the source list for COc1ccc(CN2CCC(CNC(=O)c3ccc4c(Cl)c5c(nc4c3)CCCC5)CC2)cc1 [Example 22, 9-chloro-N-((1-(4-methoxybenzyl)piperidin-4-yl)methyl)-5,6,7,8-tetrahydroacridine-3-carboxamide]?
IC50 (UCH-L3): > 200 µM; IC50 (UCH-L1): > 200 µM

Which results are given for CN(C)c1ccc(CN2CCC(CNC(=O)c3ccc4c(Cl)c5c(nc4c3)CCCC5)CC2)cc1 [Example 23]?
IC50 (UCH-L3): > 200 µM; IC50 (UCH-L1): > 200 µM

Which IC50 (UCH-L3) does the source give for O=C(NCC1CCNCC1)c1ccc2c(Cl)c3c(nc2c1)CCCC3 [Example 24, 9-chloro-N-((piperidin-4-yl)methyl)-5,6,7,8-tetrahydroacridine-3-carboxamide] here?
The IC50 was over 200 µM.

And the IC50 (UCH-L1)?
The IC50 was over 200 µM.

O=C(NCC(CN1CCCC1)C(O)c1ccccc1)c1ccc2c(Cl)c3c(nc2c1)CCCC3 (stereo not drawn) [Example 25, 9-chloro-N-(3-hydroxy-3-phenyl-2-pyrrolidin-1-ylmethylpropyl)-5,6,7,8-tetrahydroacridine-3-carboxamide] was tested. Which IC50 (UCH-L3) did it give?
Its IC50 is over 200 µM.

What about the IC50 (UCH-L1) of the same molecule?
The IC50 was over 200 µM.
